Measurements reported in patent US20260265238A1, “COMPOUNDS AND PHARMACEUTICAL COMPOSITIONS THAT DEGRADE SWI/SNF-RELATED MATRIX-ASSOCIATED ACTIN-DEPENDENT REGULATOR OF CHROMATIN SUBFAMILY A” (Plexium, Inc., priority 2023, published 2026).

How the values were obtained:
[1] = target: T1, SMARCA2-HiBiT HeLa cells (protein which is expressed from the SMARCA2 gene) (Homo sapiens, UniProt P51531); test: SMARCA2 degradation assay (HiBiT-fusion HeLa cell line, 24 h, luminescence); type: cell-based
T1 construct: protein which is expressed from the SMARCA2 and SMARCA4 genes; host or cells: HeLa (SMARCA2-HiBiT engineered line)
T1 sequence (P51531 whole entry, the tested form may be a part): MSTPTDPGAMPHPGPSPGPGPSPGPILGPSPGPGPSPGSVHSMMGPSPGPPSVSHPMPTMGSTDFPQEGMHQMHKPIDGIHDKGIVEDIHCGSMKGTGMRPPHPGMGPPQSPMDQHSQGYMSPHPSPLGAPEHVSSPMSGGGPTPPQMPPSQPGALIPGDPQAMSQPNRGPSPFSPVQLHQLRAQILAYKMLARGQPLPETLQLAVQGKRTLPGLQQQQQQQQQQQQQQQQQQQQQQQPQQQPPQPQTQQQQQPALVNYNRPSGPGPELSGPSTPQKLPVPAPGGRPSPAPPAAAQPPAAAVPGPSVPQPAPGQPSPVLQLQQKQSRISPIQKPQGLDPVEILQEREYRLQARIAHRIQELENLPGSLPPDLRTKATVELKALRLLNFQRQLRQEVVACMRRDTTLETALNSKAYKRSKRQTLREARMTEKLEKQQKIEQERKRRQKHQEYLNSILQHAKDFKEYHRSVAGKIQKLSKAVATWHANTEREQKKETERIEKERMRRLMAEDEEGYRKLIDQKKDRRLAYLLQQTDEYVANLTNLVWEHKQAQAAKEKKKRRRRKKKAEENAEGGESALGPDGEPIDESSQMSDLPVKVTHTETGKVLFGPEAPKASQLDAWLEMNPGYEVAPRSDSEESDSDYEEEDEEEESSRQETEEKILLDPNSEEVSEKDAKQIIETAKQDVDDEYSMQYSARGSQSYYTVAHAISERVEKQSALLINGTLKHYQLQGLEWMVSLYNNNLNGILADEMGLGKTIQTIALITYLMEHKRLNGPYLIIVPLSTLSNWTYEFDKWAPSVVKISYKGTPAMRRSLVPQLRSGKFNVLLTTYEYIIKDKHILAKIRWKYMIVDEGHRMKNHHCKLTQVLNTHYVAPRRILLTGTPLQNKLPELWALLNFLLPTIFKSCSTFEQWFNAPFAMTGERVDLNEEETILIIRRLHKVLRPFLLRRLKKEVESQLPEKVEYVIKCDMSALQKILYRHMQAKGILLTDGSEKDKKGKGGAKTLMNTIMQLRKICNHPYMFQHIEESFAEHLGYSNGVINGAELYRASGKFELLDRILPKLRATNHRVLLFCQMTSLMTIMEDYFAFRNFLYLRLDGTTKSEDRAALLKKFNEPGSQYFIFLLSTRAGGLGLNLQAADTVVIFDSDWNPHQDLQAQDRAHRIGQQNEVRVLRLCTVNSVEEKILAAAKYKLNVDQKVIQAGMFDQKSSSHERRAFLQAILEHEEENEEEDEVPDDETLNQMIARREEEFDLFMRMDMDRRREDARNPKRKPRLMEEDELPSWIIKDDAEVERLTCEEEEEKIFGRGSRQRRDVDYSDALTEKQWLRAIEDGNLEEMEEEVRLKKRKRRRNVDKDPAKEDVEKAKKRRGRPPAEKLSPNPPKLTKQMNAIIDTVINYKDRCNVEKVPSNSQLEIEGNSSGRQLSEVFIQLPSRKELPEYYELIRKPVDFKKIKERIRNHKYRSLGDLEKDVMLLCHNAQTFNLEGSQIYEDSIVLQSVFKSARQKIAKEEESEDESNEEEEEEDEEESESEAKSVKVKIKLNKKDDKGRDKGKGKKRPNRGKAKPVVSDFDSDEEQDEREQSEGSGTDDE
Summary of the method: (§1)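 HiBiT-fusion HeLa lines, 8,000 cells/well, overnight attachment; cpd 10-pt series (typically 10 μM–300 pM), 24 h, 37° C. Lysis with LgBiT + HiBiT substrate, 10 min shaking at RT, luminescence read. DC50 from dose-response fit; % degradation also scored at 1 μM.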

[2] = target: T2, SMARCA4-HiBiT HeLa cells (protein which is expressed from the SMARCA4 gene) (Homo sapiens, UniProt P51532); test: SMARCA4 degradation assay (HiBiT-fusion HeLa cell line, 24 h, luminescence); type: cell-based
T2 construct: protein which is expressed from the SMARCA2 and SMARCA4 genes; host or cells: HeLa (SMARCA4-HiBiT engineered line)
T2 sequence (P51532 whole entry, the tested form may be a part): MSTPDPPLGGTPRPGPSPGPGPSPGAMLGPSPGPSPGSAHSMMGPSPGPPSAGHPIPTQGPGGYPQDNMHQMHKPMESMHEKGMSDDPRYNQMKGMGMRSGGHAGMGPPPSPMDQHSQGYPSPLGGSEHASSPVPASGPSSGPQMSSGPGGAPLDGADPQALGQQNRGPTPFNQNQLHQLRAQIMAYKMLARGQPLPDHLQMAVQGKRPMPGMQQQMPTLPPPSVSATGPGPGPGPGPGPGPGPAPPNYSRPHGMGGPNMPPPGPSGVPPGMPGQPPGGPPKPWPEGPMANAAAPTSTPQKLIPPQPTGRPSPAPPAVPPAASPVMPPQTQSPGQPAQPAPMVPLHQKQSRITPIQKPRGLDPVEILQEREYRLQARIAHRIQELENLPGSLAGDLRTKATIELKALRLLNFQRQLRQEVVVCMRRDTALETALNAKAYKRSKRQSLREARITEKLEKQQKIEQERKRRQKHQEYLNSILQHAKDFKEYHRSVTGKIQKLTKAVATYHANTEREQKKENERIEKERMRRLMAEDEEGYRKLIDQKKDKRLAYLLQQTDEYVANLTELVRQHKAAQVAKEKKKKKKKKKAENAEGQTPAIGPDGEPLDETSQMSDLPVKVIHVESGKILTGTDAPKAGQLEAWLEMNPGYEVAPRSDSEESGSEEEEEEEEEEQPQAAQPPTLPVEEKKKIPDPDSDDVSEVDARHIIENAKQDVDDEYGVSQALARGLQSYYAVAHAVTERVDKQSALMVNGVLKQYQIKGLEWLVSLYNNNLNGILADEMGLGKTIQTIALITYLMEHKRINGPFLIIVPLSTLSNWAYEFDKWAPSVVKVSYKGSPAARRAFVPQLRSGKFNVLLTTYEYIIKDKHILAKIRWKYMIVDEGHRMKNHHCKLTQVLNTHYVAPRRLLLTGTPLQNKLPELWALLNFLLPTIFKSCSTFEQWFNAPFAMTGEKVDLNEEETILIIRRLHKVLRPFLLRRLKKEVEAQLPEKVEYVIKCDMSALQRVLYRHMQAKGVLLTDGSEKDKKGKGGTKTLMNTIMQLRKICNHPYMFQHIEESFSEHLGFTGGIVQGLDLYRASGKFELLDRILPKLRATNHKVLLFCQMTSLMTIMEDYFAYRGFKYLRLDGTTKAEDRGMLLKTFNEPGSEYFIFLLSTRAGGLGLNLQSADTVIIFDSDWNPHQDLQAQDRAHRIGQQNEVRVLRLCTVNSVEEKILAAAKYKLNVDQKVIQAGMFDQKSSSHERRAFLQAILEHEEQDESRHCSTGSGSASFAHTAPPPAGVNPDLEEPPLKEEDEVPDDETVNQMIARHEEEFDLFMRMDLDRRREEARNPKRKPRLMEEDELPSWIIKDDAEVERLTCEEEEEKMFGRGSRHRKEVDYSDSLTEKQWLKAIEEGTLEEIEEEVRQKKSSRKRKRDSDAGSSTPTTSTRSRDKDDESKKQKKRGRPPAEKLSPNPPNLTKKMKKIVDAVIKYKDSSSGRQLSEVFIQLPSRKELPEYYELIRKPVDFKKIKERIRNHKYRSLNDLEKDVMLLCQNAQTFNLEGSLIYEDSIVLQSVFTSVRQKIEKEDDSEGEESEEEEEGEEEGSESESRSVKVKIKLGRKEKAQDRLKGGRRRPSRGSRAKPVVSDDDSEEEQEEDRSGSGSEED
Summary of the method: as §1

| SMILES | DC50 [1] [nM] | SMARCA2 % Degradation @ 1 μM ([1]; @ 1 μM) | DC50 [2] [nM] | inhibition at 1 µM ([2]; @ 1 μM) [%] | SMARCA2 % Degradation @ 1 μM ([1]; 1 μM) | inhibition at 1 µM ([2]; 1 μM) [%] |
| --- | --- | --- | --- | --- | --- | --- |
| C[C@@H]1CCN(c2cc(-c3ccccc3O)nnc2N)CCN1c1ccnc(C#CCN2CC[C@@H](F)C2)n1 [Compound P-236, o-{5-[(R)-4-(2-{3-[(R)-3-fluoro-1-pyrrolidinyl]-1-propynyl}-4-pyrimidinyl)-5-methyl-1,4-diazepan-1-yl]-6-amino-3-pyridaziny1} phenol] | < 50 | ++ (++=30-70%) | < 50 | < 30 |  |  |
| C[C@@H]1CCN(c2cc(-c3ccccc3O)nnc2N)CCN1c1ccc(C(F)(F)F)c(C#CCN2CCCC2)n1 [Compound P-394] | 500 to 5000 |  | 500 to 5000 |  | + (+=<30%) |  |
| CNCC#Cc1nccc(N2CCN(c3cc(-c4ccccc4O)nnc3N)CC[C@H]2C)n1 [Compound P-297, 0-{5-[(R)-5-methyl-4-{2-[3-(methylamino)-1-propynyl]-4-pyrimidinyl}-1,4-diazepan-1-yl]-6-amino-3-pyridazinyl} phenol] | 50 to 500 | ++ (++=30-70%) | < 50 | < 30 |  |  |
| C[C@@H]1CCN(c2cc(-c3ccccc3O)nnc2N)CCN1c1ccnc(C#CC2CCC2)c1 [Compound P-388, 0-(5-{(R)-4-[2-(2-cyclobutylethynyl)-4-pyridyl]-5-methyl-1,4-diazepan-1-yl}-6-amino-3-pyridazinyl)phenol] | 50 to 500 |  | 500 to 5000 |  | ++ (++=30-70%) | 30 to 70 |
| C[C@@H]1CCN(c2cc(-c3ccccc3O)nnc2N)CCN1c1ccnc(C#CCN2[C@@H]3CC[C@H]2C[C@@H](O)C3)n1 [Compound P-261, 8-[3-(4-{(R)-4-[3-amino-6-(o-hydroxyphenyl)-4-pyridazinyl]-7-methyl-1,4-diazepan-1-yl}-2-pyrimidinyl)-2-propynyl]-8-azabicyclo[3.2.1]octan-3-ol] | 50 to 500 | +++ (+++=>70%) | 50 to 500 | 30 to 70 |  |  |
| COCC#Cc1nccc(N2CCCN(c3cc(-c4ccccc4O)nnc3N)CC2)n1 [Compound P-342, 0-(6-amino-5-{4-[2-(3-mcthoxy-1-propynyl)-4-pyrimidinyl]-1,4-diazepan-1-yl}-3-pyridazinyl)phenol] | 50 to 500 | ++ (++=30-70%) | 50 to 500 | 30 to 70 |  |  |
| Nc1nnc(-c2ccccc2O)cc1N1CCN(c2ccnc(C#CCNC(=O)c3coc4ccccc34)n2)CC1 [Compound P-55, N-(3-(4-(4-(3-amino-6-(2-hydroxyphenyl)pyridazin-4-yl)piperazin-1-yl)pyrimidin-2-yl)prop-2-yn-1-yl)benzofuran-3-carboxamide] | 50 to 500 | ++ (++=30-70%) | 50 to 500 | 30 to 70 |  |  |
| C[C@@H]1CCN(c2cc(-c3ccccc3O)nnc2N)CCN1c1ccnc(C#CC2CC(F)(F)C2)n1 [Compound P-269, 0-{5-[(R)-4-{2-[2-(3,3-difluorocyclobutyl)ethynyl]-4-pyrimidinyl}-5-methyl-1,4-diazepan-1-y1]-6-amino-3-pyridazinyl} phenol] | 50 to 500 | +++ (+++=>70%) | 50 to 500 | > 70 |  |  |
| CNC/C=C/c1nccc(N2CCN(c3cc(-c4ccccc4O)nnc3N)CC[C@H]2C)n1 [Compound P-165, o-{5-[(R)-5-methyl-4-{2-[3-(methylamino)-1-propenyl]-4-pyrimidinyl}-1,4-diazepan-1-y1]-6-amino-3-pyridaziny1}phenol] | 50 to 500 | +++ (+++=>70%) | 50 to 500 | 30 to 70 |  |  |
| CN(C)CC#Cc1nccc(N2C3CCC2CN(c2cnnc(-c4ccccc4O)c2)C3)n1 [Compound P-381, 0-[5-(8-{2-[3-(dimethylamino)-1-propynyl]-4-pyrimidinyl}-3,8-diazabicyclo[3.2.1]oct-3-yl)-3-pyridazinyl]phenol] | 50 to 500 |  | > 5000 |  | ++ (++=30-70%) |  |
| Cn1ccc(NCC#Cc2nccc(N3C4CCC3CN(c3cc(-c5ccccc5O)nnc3N)C4)n2)n1 [Compound P-287] | 50 to 500 | ++ (++=30-70%) | 50 to 500 | 30 to 70 |  |  |
| C[C@@H]1CCN1CC#Cc1nccc(N2CCCN(c3cc(-c4ccccc4O)nnc3N)CC2)n1 [Compound P-299, 0-{5-[4-(2-{3-[(R)-2-methyl-1-azetidinyl]-1-propynyl}-4-pyrimidinyl)-1,4-diazepan-1-y1]-6-amino-3-pyridaziny1} phenol] | 50 to 500 | +++ (+++=>70%) | 50 to 500 | 30 to 70 |  |  |
| C[C@@H]1CCN(c2cc(-c3ccccc3O)nnc2N)CCN1c1nc(C#CCN2CCCC2=O)ncc1F [Compound P-203, 1-[3-(4-{(R)-4-[3-amino-6-(o-hydroxyphenyl)-4-pyridazinyl]-7-methyl-1,4-diazepan-1-y1}-5-fluoro-2-pyrimidinyl)-2-propynyl]-2-pyrrolidinone] | 50 to 500 | ++ (++=30-70%) | 50 to 500 | 30 to 70 |  |  |
| Cc1nn2ccn(CC#Cc3nccc(N4C5CCC4CN(c4cc(-c6ccccc6O)nnc4N)C5)n3)c(=O)c2c1C [Compound P-103, 5-(3-(4-(3-(3-amino-6-(2-hydroxyphenyl)pyridazin-4-yl)-3,8-diazabicyclo[3.2.1]octan-8-yl)pyrimidin-2-yl)prop-2-yn-1-yl)-2,3-dimethylpyrazolo[1,5-a]pyrazin-4(5H)-one] | 50 to 500 | +++ (+++=>70%) | 50 to 500 | 30 to 70 |  |  |
| CC1CN(c2ccnc(C#CCNC(=O)c3cc4ncccn4n3)n2)CCN(c2cc(-c3ccccc3O)nnc2N)C1 (stereo not shown) [Compound P-27, N-(3-(4-(4-(3-amino-6-(2-hydroxyphenyl)pyridazin-4-yl)-6-methyl-1,4-diazepan-1-yl)pyrimidin-2-yl)prop-2-yn-1-yl)pyrazolo[1,5-a]pyrimidine-2-carboxamide] | 50 to 500 | +++ (+++=>70%) | 50 to 500 | > 70 |  |  |
| Nc1nnc(-c2ccccc2O)cc1N1C2CCC1CN(c1ccnc(C#CCn3ccnc3)n1)C2 [Compound P-284, 0-[6-amino-5-(3-{2-[3-(1-imidazolyl)-1-propynyl]-4-pyrimidinyl}-3,8-diazabicyclo[3.2.1]oct-8-yl)-3-pyridazinyl]phenol] | 50 to 500 | ++ (++=30-70%) | 500 to 5000 | < 30 |  |  |
| CN1CCCC1C#Cc1nccc(N2CCCN(c3cc(-c4ccccc4O)nnc3N)CC2)n1 (stereo not shown) [Compound P-350, 0-[6-amino-5-(4-{2-[2-(1-methyl-2-pyrrolidinyl)cthynyl]-4-pyrimidinyl}-1,4-diazepan-1-yl)-3-pyridazinyl]phenol] | 50 to 500 | +++ (+++=>70%) | 50 to 500 | > 70 |  |  |
| C[C@@H]1CCN(c2cc(-c3ccccc3O)nnc2N)CCN1c1ccnc(C#CCNC(=O)OC(C)(C)C)n1 [Compound P-238] | 50 to 500 | +++ (+++=>70%) | 50 to 500 | 30 to 70 |  |  |
| C[C@@H]1CCN(c2cc(-c3ccccc3O)nnc2N)CCN1c1ccnc(C#CC2CC(F)(F)C2)c1 [Compound P-396, 0-{5-[(R)-4-{2-[2-(3,3-difluorocyclobutyl)ethynyl]-4-pyridyl}-5-methyl-1,4-diazepan-1-yl]-6-amino-3-pyridazinyl}phenol] | 50 to 500 |  | 50 to 500 |  | +++ (+++=>70%) | 30 to 70 |
| COC(=O)NCC#Cc1nccc(N2CCCN(c3cc(-c4ccccc4O)nnc3N)CC2)n1 [Compound P-353, 3-(4-{4-[3-amino-6-(o-hydroxyphenyl)-4-pyridaziny1]-1,4-diazepan-1-y1}-2-pyrimidinyl)-2-propynylaminomethylformylate] | 50 to 500 | +++ (+++=>70%) | 50 to 500 | > 70 |  |  |
| Nc1nnc(-c2ccccc2O)cc1N1CCN(c2ccnc(C#CCNC(=O)c3cc4n(n3)CCOC4)n2)CC1 [Compound P-58, N-(3-(4-(4-(3-amino-6-(2-hydroxyphenyl)pyridazin-4-yl)piperazin-1-yl)pyrimidin-2-yl)prop-2-yn-1-yl)-6,7-dihydro-4H-pyrazolo[5,1-c][1,4]oxazine-2-carboxamide] | 50 to 500 | ++ (++=30-70%) | 50 to 500 | 30 to 70 |  |  |
| Nc1nnc(-c2ccccc2O)cc1N1CCCN(c2ccnc(C#CCN3CCOCC3)n2)CC1 [Compound P-136, 2-(6-amino-5-(4-(2-(3-morpholinoprop-1-yn-1-yl)pyrimidin-4-yl)-1,4-diazepan-1-yl)pyridazin-3-yl)phenol] | 50 to 500 | ++ (++=30-70%) | 50 to 500 | 30 to 70 |  |  |
| Nc1nnc(-c2ccccc2O)cc1N1CC2CCC(C1)N2c1ccnc(C#CCn2ccnc2)n1 [Compound P-290] | 50 to 500 | ++ (++=30-70%) | 50 to 500 | < 30 |  |  |
| C[C@@H]1CCN(c2cc(-c3ccccc3O)nnc2N)CCN1c1ccnc(C#CCN2CC(F)(F)C2)c1 [Compound P-421, 0-{5-[(R)-4-{2-[3-(3,3-difluoro-1-azetidinyl)-1-propynyl]-4-pyridyl}-5-methyl-1,4-diazepan-1-yl]-6-amino-3-pyridazinyl}phenol] | 50 to 500 |  | < 50 |  | ++ (++=30-70%) | 30 to 70 |
